Patent US9216964B2, “Hedgehog pathway modulators” (Novartis AG, priority 2008, dated 2015)
Read-outs that look alike come from different tables or passages of the source.

Tested on: hedgehog signaling pathway
Assay: Gli-Luc Reporter Assay for Hh Pathway Inhibition (TMHh-12 cells, pTA-8×Gli-Luc reporter)
Type: cell-based, Mouse
Method in brief: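 Mouse TM3 cells stably carrying an 8×Gli-firefly luciferase reporter, in 2% FBS medium; pathway activated with recombinant mouse Shh (8 μg/mL) or Smo agonist, compounds added at varying concentrations for 48 h. Luminescence read; IC50 at 50% signal reduction. Toxicity checked in TM3 cells (CellTiter-Glo) or constitutive-luciferase TM3-Luc cells.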

[1] = Mus musculus, TMHh12, enzymatic and cellular assays for the inhibition of hedgehog signaling pathways, read-out: IC50 Ranges
[2] = Mus musculus, TMHh12, Ag1.5 1 nM, read-out: Hedgehog Inhibition IC50 (nM) (Ag1.5 1 nM)
[3] = enzymatic and cellular assays for the inhibition of hedgehog signaling pathways, read-out: IC50 Ranges

Compound	IC50 [1]	IC50 [2]	IC50 [3]
Cc1ccnc(-c2cc(Nc3cccc4c3CCN(S(C)(=O)=O)C4)ccc2C)c1 [Compound 192]	0.001 to 1 nM	–	–
Cc1ccc(Nc2cccc3c2CCN(C2(CO)CC2)C3)cc1-c1nc2ccccc2[nH]1 [Compound 89]	1 to 10 nM	–	–
Cc1ccc(-c2cc(Nc3ncnc4c3CCN(C3CCS(=O)(=O)CC3)C4)ccc2C)nc1 [Compound 277]	10 to 100 nM	–	–
CC(CO)(CO)C(=O)N1CCc2c(cccc2Nc2ccc(Cl)c(-c3ncc(-c4ccccc4)[nH]3)c2)C1 [Compound 2]	0.001 to 1 nM	0.45 nM	–
Cc1ccc(Nc2cccc3c2CCN(CCS(C)(=O)=O)C3)cc1-c1ccc(C#N)cn1 [Compound 245]	1 to 10 nM	–	–
Cc1ccc(Nc2cccc3c2CCN(S(C)(=O)=O)C3)cc1-c1ccc(N(C)C)nn1 [Compound 254]	1 to 10 nM	–	–
NS(=O)(=O)N1CCc2c(cccc2Nc2ccc(Cl)c(-c3ncc(-c4ccccc4)[nH]3)c2)C1 [Compound 13]	1 to 10 nM	1.6 nM	–
Cc1ccc(Nc2cccc3c2CCN(S(C)(=O)=O)C3)cc1-c1ccc(N(C)C)cn1 [Compound 291]	0.001 to 1 nM	–	–
[O-][n+]1ccc(N2CCc3c(cccc3Nc3ccc(Cl)c(-c4ncc(-c5ccccc5)[nH]4)c3)C2)cc1 [Compound 49]	1 to 10 nM	–	–
C[C@@H](O)C(=O)N1CCc2c(cccc2Nc2ccc(Cl)c(-c3ncc(-c4ccccc4)[nH]3)c2)C1 [Compound 8]	0.001 to 1 nM	–	–
Cc1ccc(Nc2cccc3c2CCN(C[C@H](O)CO)C3)cc1-c1ccc(F)cn1 [Compound 195]	1 to 10 nM	–	–
CCS(=O)(=O)N1CCc2c(ncnc2Nc2ccc(C)c(-c3ccc(C)cn3)c2)C1 [Compound 293]	0.001 to 1 nM	–	–
O=C1c2cccc(Nc3ccc(Cl)c(-c4ncc(-c5ccccc5)[nH]4)c3)c2CCN1C[C@H](O)CO [Compound 35]	1 to 10 nM	2.6 nM	–
CCOc1ccc(-c2cc(Nc3cccc4c3CCN(C3CCS(=O)(=O)C3)C4)ccc2C)nn1 (stereo not shown) [Compound 296]	1 to 10 nM	–	–
C[C@H](O)C(=O)N1CCc2c(cccc2Nc2ccc(Cl)c(-c3ncc(-c4ccccc4)[nH]3)c2)C1 [Compound 20]	1 to 10 nM	–	–
Cc1cnc(-c2cc(Nc3cccc4c3CCN(S(C)(=O)=O)C4)ccc2C)nc1 [Compound 216]	10 to 100 nM	15 nM	–
CC(=O)N1CCC(N2CCc3c(cccc3Nc3ccc(Cl)c(-c4ncc(-c5ccccc5)[nH]4)c3)C2)CC1 [Compound 11]	0.001 to 1 nM	–	–
Cc1ccc(Nc2cccc3c2CCN(CCS(C)(=O)=O)C3)cc1C(=O)Nc1ccccc1 [Compound 246]	10 to 100 nM	–	–
CN1CCC(N2CCc3c(cccc3Nc3ccc(Cl)c(-c4ncc(-c5ccccc5)[nH]4)c3)C2)CC1 [Compound 41]	1 to 10 nM	–	–
Cc1ccc(Nc2cccc3c2CCN(S(C)(=O)=O)C3)cc1-c1ccc(C(=O)O)cc1 [Compound 144]	1000 to 10000 nM	–	–
Cc1ccc(Nc2cccc3c2CCN(S(C)(=O)=O)C3)cc1-c1ccc(C#N)nn1 [Compound 207]	10 to 100 nM	–	–
Cc1ccc(-c2cc(Nc3cccc4c3CCN(CC(=O)N(C)C)C4)ccc2C)nc1 [Compound 233]	1 to 10 nM	–	–
CCOc1ccc(-c2cc(Nc3cccc4c3CCN(S(C)(=O)=O)C4)ccc2C)nn1 [Compound 271]	0.001 to 1 nM	–	–
Cc1ccc(Nc2cccc3c2CCN([C@H]2CCS(=O)(=O)C2)C3)cc1-c1ncccc1F [Compound 345]	–	–	0.001 to 1 nM

Compound	IC50 [1]	IC50 [2]	IC50 [3]
Cc1ccc(Nc2cccc3c2CCN(S(C)(=O)=O)C3)cc1-c1ccc(C(F)(F)F)cn1 [Compound 167]	–	–	1 to 10 nM
Cc1ccc(Nc2cccc3c2CCN(C2CCS(=O)(=O)C2)C3)cc1-c1ncc(F)cc1F (stereo not shown) [Compound 326]	0.001 to 1 nM	–	–
Cc1ccc(Nc2cccc3c2CCN(S(C)(=O)=O)C3)cc1-c1ccc(C(=O)N(CCO)CCO)cc1 [Compound 147]	1000 to 10000 nM	–	–
Cc1ccc(Nc2cccc3c2CCN(S(=O)(=O)CCN(C)C)C3)cc1-c1ncccc1F [Compound 289]	0.001 to 1 nM	–	–
Cc1ccc(-c2cc(Nc3cccc4c3CCN(C[C@H](O)CO)C4)ccc2C)nc1 [Compound 210]	1 to 10 nM	–	–
Cc1ccc(Nc2nccc3c2CCN(S(C)(=O)=O)C3)cc1-c1ccc(C#N)cc1 [Compound 125]	10 to 100 nM	–	–
Cc1ccc(Nc2cccc3c2CCN(C(=O)C(C)(CO)CO)C3)cc1-c1ncc(-c2cccnc2)[nH]1 [Compound 76]	1 to 10 nM	–	–
Cc1ccc(Nc2cccc3c2CCN(CC(F)(F)CO)C3)cc1-c1ccc(C#N)cn1 [Compound 211]	0.001 to 1 nM	–	–
Cc1ccc(Nc2cccc3c2CCN(S(C)(=O)=O)C3)cc1C(=O)Nc1ccc(OC(F)(F)F)cc1 [Compound 187]	1 to 10 nM	1.1 nM	–
CCOc1ccc(-c2cc(Nc3cccc4c3CCN(CCS(C)(=O)=O)C4)ccc2C)nn1 [Compound 294]	1 to 10 nM	–	–
CCS(=O)(=O)N1CCc2c(cccc2Nc2ccc(C)c(-c3ccc(OC)nn3)n2)C1 [Compound 318]	1 to 10 nM	–	–
Cc1ccc(Nc2cccc3c2CCN([C@H]2CCS(=O)(=O)C2)C3)cc1-c1ncccc1F [Compound 343]	–	–	0.001 to 1 nM
Cc1ccc(Nc2cccc3c2CCN(S(C)(=O)=O)C3)cc1-c1ncc(-c2ccc(CN(C)C)cc2)[nH]1 [Compound 106]	1 to 10 nM	–	–
Cc1ccc(Nc2ncnc3c2CCN(S(C)(=O)=O)C3)cc1C(=O)Nc1ccccc1 [Compound 301]	100 to 1000 nM	–	–
COc1cnnc(-c2cc(Nc3cccc4c3CCN(S(C)(=O)=O)C4)ccc2C)c1 [Compound 270]	10 to 100 nM	–	–
O=C(O)C(F)(F)CN1CCc2c(cccc2Nc2ccc(Cl)c(-c3nc(-c4ccccc4)c[nH]3)c2)C1 [Compound 64]	1 to 10 nM	–	–
CC1(C)OC[C@H](CN2CCC(N3CCc4c(cccc4Nc4ccc(Cl)c(-c5ncc(-c6ccccc6)[nH]5)c4)C3)CC2)O1 [Compound 28]	1 to 10 nM	–	–
CS(=O)(=O)N1CCc2c(cccc2Nc2ccc(C#N)c(-c3ccc(C#N)cc3)c2)C1 [Compound 155]	100 to 1000 nM	–	–
Cc1ccc(Nc2cccc3c2CCN(S(C)(=O)=O)C3)cc1-c1ccc(C#N)cn1 [Compound 154]	1 to 10 nM	–	–
[O-][S+]1CCC([N+]2([O-])CCc3c(cccc3Nc3ccc(Cl)c(-c4ncc(-c5ccccc5)[nH]4)c3)C2)CC1 (stereo not shown) [Compound 26]	1 to 10 nM	–	–
CC1(N2CCc3c(cccc3Nc3ccc(Cl)c(-c4ncc(-c5ccccc5)[nH]4)c3)C2)CC1 [Compound 80]	1 to 10 nM	–	–
CCS(=O)(=O)CCN1CCc2c(cccc2Nc2ccc(C)c(-c3ccc(C)cn3)c2)C1 [Compound 261]	0.001 to 1 nM	–	–
Cc1ccc(Nc2cccc3c2CCN(S(C)(=O)=O)C3)cc1-c1ccc(C(=O)NCC(C)O)cc1 (stereo not shown) [Compound 148]	100 to 1000 nM	–	–
Clc1ccc(Nc2cccc3c2CCN(C2CCCCC2)C3)cc1-c1ncc(-c2ccccc2)[nH]1 [Compound 22]	1 to 10 nM	–	–

Compound	IC50 [1]	IC50 [2]	IC50 [3]
Cc1ccc(Nc2cccc3c2CCN(S(C)(=O)=O)C3)cc1-c1ccc(C#N)nc1 [Compound 129]	10 to 100 nM	52 nM	–
O=C(NCCO)N1CCc2c(cccc2Nc2ccc(Cl)c(-c3ncc(-c4ccccc4)[nH]3)c2)C1 [Compound 42]	0.001 to 1 nM	0.0017 nM	–
CCC(CC)N1CCC(N2CCc3c(cccc3Nc3ccc(Cl)c(-c4ncc(-c5ccccc5)[nH]4)c3)C2)CC1 [Compound 31]	0.001 to 1 nM	–	–
Cc1ccc(Nc2cccc3c2CCN(S(C)(=O)=O)C3)cc1-c1ccc(C(=O)NCC(O)CO)cc1 (stereo not shown) [Compound 146]	1000 to 10000 nM	–	–
Clc1ccc(Nc2cccc3c2CCN(Cc2nn[nH]n2)C3)cc1-c1ncc(-c2ccccc2)[nH]1 [Compound 86]	1 to 10 nM	–	–
Cc1ccc(Nc2cccc3c2CCN(S(C)(=O)=O)C3)cc1-c1ccc(C(F)(F)F)cc1 [Compound 136]	10 to 100 nM	90 nM	–
CS(=O)(=O)N1CCc2c(cccc2Nc2ccc(Cl)c(C(=O)Nc3ccccc3)n2)C1 [Compound 226]	0.001 to 1 nM	–	–
Cc1ccc(-c2cc(Nc3cccc4c3CCN(C3CCS(=O)(=O)CC3)C4)ccc2C)nc1 [Compound 235]	0.001 to 1 nM	–	–
Cc1ccc(-c2cc(Nc3cccc4c3CCN(CC(C)(C)O)C4)ccc2C)nc1 [Compound 201]	0.001 to 1 nM	–	–
Cc1ccc(Nc2cccc3c2CCN([C@@H]2CCS(=O)(=O)C2)C3)cc1-c1ncccc1F [Compound 287]	–	–	1 to 10 nM
COc1cnc(-c2cc(Nc3cccc4c3CCN(S(C)(=O)=O)C4)ccc2C)nc1 [Compound 176]	10 to 100 nM	–	–
CCOc1cnc(-c2cc(Nc3cccc4c3CCN(C3CCS(=O)(=O)C3)C4)ccc2C)cn1 (stereo not shown) [Compound 308]	1 to 10 nM	–	–
NC(=O)N1CCc2c(cccc2Nc2ccc(Cl)c(-c3ncc(-c4ccccc4)[nH]3)c2)C1 [Compound 43]	1 to 10 nM	4.5 nM	–
CCOc1ccc(-c2cc(Nc3cccc4c3CCN([C@@H]3CCS(=O)(=O)C3)C4)ccc2C)nn1 [Compound 339]	1 to 10 nM	–	–
Cc1ccc(Nc2cccc3c2CCN(S(C)(=O)=O)C3)cc1-c1nc2cnc(N(C)C)cc2[nH]1 [Compound 103]	10 to 100 nM	59 nM	–
C[S+]([O-])CC(=O)N1CCc2c(cccc2Nc2ccc(Cl)c(-c3ncc(-c4ccccc4)[nH]3)c2)C1 (stereo not shown) [Compound 19]	0.001 to 1 nM	–	–
CCOc1cnc(-c2nc(Nc3cccc4c3CCN(S(C)(=O)=O)C4)ccc2C)cn1 [Compound 333]	10 to 100 nM	–	–
Clc1ccc(Nc2cccc3c2CCN(C2CCOCC2)C3)cc1-c1ncc(-c2ccccc2)[nH]1 [Compound 29]	0.001 to 1 nM	–	–
CCC(CC)(C(=O)O)C(=O)N1CCc2c(cccc2Nc2ccc(Cl)c(-c3nc(-c4ccccc4)c[nH]3)c2)C1 [Compound 66]	1 to 10 nM	5.3 nM	–
Cc1ccc(Nc2cccc3c2CCN(CC(C)(C)O)C3)cc1-c1ccc(C#N)cn1 [Compound 199]	1 to 10 nM	–	–
Cc1ccc(Nc2cccc3c2CCN(S(C)(=O)=O)C3)cc1-c1ccc(CNCC(O)CO)cc1 (stereo not shown) [Compound 157]	1000 to 10000 nM	–	–
CCOc1cnc(-c2cc(Nc3cccc4c3CCN(C3CCS(=O)(=O)CC3)C4)ccc2C)cn1 [Compound 335]	1 to 10 nM	–	–
Cc1ccc(-c2cc(Nc3ncnc4c3CCN(S(=O)(=O)C(C)C)C4)ccc2C)nc1 [Compound 292]	1 to 10 nM	–	–
